# Experimental data taken from the NIST ThermoML archive (doi:10.1016/j.jct.2007.07.005).
# ± gives the expanded uncertainty stated by the source.
# Assay: xn = mol fraction of the nth substance listed
# Settings: Fluid (supercritical or subcritical phases), vibrating tube
compound,measurement,setting,value
CCCCCO [pentan-1-ol] + O=C=O,mass density,"323.05 K, 13025 kPa, x2 = 0.0816",806.04 ± 0.44 kg/m3
same,mass density,"323.05 K, 13028 kPa, x2 = 0.8067",814.77 ± 0.49 kg/m3
same,mass density,"323.05 K, 14019 kPa, x2 = 0.3624",822.92 ± 0.44 kg/m3
same,mass density,"323.05 K, 14021 kPa, x2 = 0.0816",806.82 ± 0.44 kg/m3
same,mass density,"323.05 K, 14024 kPa, x2 = 0.8067",820.63 ± 0.48 kg/m3
same,mass density,"323.05 K, 14024 kPa, x2 = 0.9757",722.69 ± 0.76 kg/m3
same,mass density,"323.05 K, 14031 kPa, x2 = 0.4651",829.31 ± 0.45 kg/m3
same,mass density,"323.05 K, 14965 kPa, x2 = 0.9757",740.5 ± 0.69 kg/m3
same,mass density,"323.05 K, 14990 kPa, x2 = 0.4651",830.68 ± 0.45 kg/m3
same,mass density,"323.05 K, 15001 kPa, x2 = 0.8067",825.93 ± 0.48 kg/m3
same,mass density,"323.05 K, 15006 kPa, x2 = 0.3624",823.89 ± 0.45 kg/m3
same,mass density,"323.05 K, 15017 kPa, x2 = 0.0816",807.57 ± 0.44 kg/m3
same,mass density,"323.05 K, 16002 kPa, x2 = 0.3624",824.89 ± 0.45 kg/m3
same,mass density,"323.05 K, 16018 kPa, x2 = 0.9757",757.4 ± 0.65 kg/m3
same,mass density,"323.05 K, 16021 kPa, x2 = 0.0816",808.32 ± 0.45 kg/m3
same,mass density,"323.05 K, 16027 kPa, x2 = 0.4651",832.14 ± 0.45 kg/m3
same,mass density,"323.05 K, 16066 kPa, x2 = 0.8067",831.24 ± 0.48 kg/m3
same,mass density,"323.05 K, 17005 kPa, x2 = 0.0816",809.07 ± 0.45 kg/m3
same,mass density,"323.05 K, 17018 kPa, x2 = 0.4651",833.51 ± 0.45 kg/m3
same,mass density,"323.05 K, 17021 kPa, x2 = 0.3624",825.87 ± 0.45 kg/m3
same,mass density,"323.05 K, 17021 kPa, x2 = 0.8067",835.7 ± 0.48 kg/m3
same,mass density,"323.05 K, 17052 kPa, x2 = 0.9757",771.8 ± 0.62 kg/m3
same,mass density,"323.05 K, 17994 kPa, x2 = 0.4651",834.85 ± 0.45 kg/m3
same,mass density,"323.05 K, 18001 kPa, x2 = 0.3624",826.81 ± 0.45 kg/m3
same,mass density,"323.05 K, 18002 kPa, x2 = 0.8067",840 ± 0.47 kg/m3
same,mass density,"323.05 K, 18028 kPa, x2 = 0.9757",783.78 ± 0.59 kg/m3
same,mass density,"323.05 K, 18049 kPa, x2 = 0.0816",809.83 ± 0.45 kg/m3
same,mass density,"323.05 K, 18975 kPa, x2 = 0.0816",810.52 ± 0.45 kg/m3
same,mass density,"323.05 K, 19012 kPa, x2 = 0.8067",844.21 ± 0.47 kg/m3
same,mass density,"323.05 K, 19034 kPa, x2 = 0.3624",827.81 ± 0.45 kg/m3
same,mass density,"323.05 K, 19035 kPa, x2 = 0.9757",794.96 ± 0.58 kg/m3
same,mass density,"323.05 K, 19057 kPa, x2 = 0.4651",836.29 ± 0.45 kg/m3
same,mass density,"323.05 K, 19998 kPa, x2 = 0.3624",828.72 ± 0.45 kg/m3
same,mass density,"323.05 K, 20002 kPa, x2 = 0.9757",804.8 ± 0.56 kg/m3
same,mass density,"323.05 K, 20009 kPa, x2 = 0.4651",837.54 ± 0.45 kg/m3
same,mass density,"323.05 K, 20044 kPa, x2 = 0.8067",848.26 ± 0.47 kg/m3
same,mass density,"323.05 K, 20047 kPa, x2 = 0.0816",811.3 ± 0.45 kg/m3
same,mass density,"323.05 K, 20997 kPa, x2 = 0.0816",811.98 ± 0.45 kg/m3
same,mass density,"323.05 K, 21033 kPa, x2 = 0.3624",829.67 ± 0.45 kg/m3
same,mass density,"323.05 K, 21034 kPa, x2 = 0.4651",838.89 ± 0.45 kg/m3
same,mass density,"323.05 K, 21046 kPa, x2 = 0.8067",851.97 ± 0.47 kg/m3
same,mass density,"323.05 K, 21049 kPa, x2 = 0.9757",814.6 ± 0.55 kg/m3
same,mass density,"323.05 K, 21991 kPa, x2 = 0.0816",812.7 ± 0.45 kg/m3
same,mass density,"323.05 K, 22013 kPa, x2 = 0.3624",830.58 ± 0.45 kg/m3
same,mass density,"323.05 K, 22017 kPa, x2 = 0.4651",840.19 ± 0.45 kg/m3
same,mass density,"323.05 K, 22017 kPa, x2 = 0.8067",855.5 ± 0.47 kg/m3
same,mass density,"323.05 K, 22020 kPa, x2 = 0.9757",823 ± 0.54 kg/m3
same,mass density,"323.05 K, 22767 kPa, x2 = 0.9757",829.12 ± 0.54 kg/m3
same,mass density,"323.05 K, 22970 kPa, x2 = 0.8067",858.77 ± 0.47 kg/m3
same,mass density,"323.05 K, 22997 kPa, x2 = 0.3624",831.49 ± 0.45 kg/m3
same,mass density,"323.05 K, 23022 kPa, x2 = 0.4651",841.47 ± 0.45 kg/m3
same,mass density,"323.05 K, 23054 kPa, x2 = 0.0816",813.46 ± 0.45 kg/m3
same,mass density,"323.05 K, 23901 kPa, x2 = 0.4651",842.61 ± 0.45 kg/m3
same,mass density,"323.05 K, 23987 kPa, x2 = 0.0816",814.12 ± 0.45 kg/m3
same,mass density,"323.05 K, 24062 kPa, x2 = 0.3624",832.47 ± 0.45 kg/m3
same,mass density,"323.05 K, 24707 kPa, x2 = 0.3624",833.04 ± 0.45 kg/m3
same,mass density,"323.05 K, 25014 kPa, x2 = 0.0816",814.87 ± 0.45 kg/m3
same,mass density,"323.06 K, 11010 kPa, x2 = 0.8573",775.4 ± 0.58 kg/m3
same,mass density,"323.06 K, 11028 kPa, x2 = 0.9216",732.55 ± 1 kg/m3
same,mass density,"323.06 K, 12011 kPa, x2 = 0.9216",751.44 ± 0.68 kg/m3
same,mass density,"323.06 K, 12019 kPa, x2 = 0.8573",787.14 ± 0.54 kg/m3
same,mass density,"323.06 K, 13011 kPa, x2 = 0.8573",796.54 ± 0.52 kg/m3
